From ChEMBL document CHEMBL3588822, “Synthetic 1,2,3-triazole-linked glycoconjugates bind with high affinity to human galectin-3” (Bioorg Med Chem, 2015)

Legend:
Galectin-3 [1] = target: T1, Galectin-3 (Homo sapiens, UniProt P17931); experiment: Inhibition of human recombinant wild type galectin 3 after 60 mins by surface plasmon resonance immunosensor assay
Galectin-3 [2] = target: T1, Galectin-3; experiment: Inhibition of human recombinant wild type galectin 3 second carbohydrate recognition domain after 60 mins by surface plasmon resonance immunosensor assay
Galectin-3 [3] = target: T1, Galectin-3; experiment: Inhibition of human recombinant wild type galectin 3 first carbohydrate recognition domain after 60 mins by surface plasmon resonance immunosensor assay

T1 sequence (P17931 whole entry, the tested form may be a part): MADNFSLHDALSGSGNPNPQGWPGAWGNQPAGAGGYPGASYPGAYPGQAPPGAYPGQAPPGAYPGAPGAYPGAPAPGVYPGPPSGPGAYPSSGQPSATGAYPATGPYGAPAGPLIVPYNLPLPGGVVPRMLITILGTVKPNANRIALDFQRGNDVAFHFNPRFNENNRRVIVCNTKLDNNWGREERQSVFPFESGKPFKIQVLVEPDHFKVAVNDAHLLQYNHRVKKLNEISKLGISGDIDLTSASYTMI

| Kd (Galectin-3 [1]) [µM] | Kd (Galectin-3 [2]) [µM] | Kd (Galectin-3 [3]) [µM] | SMILES |
| --- | --- | --- | --- |
| 4.56 | – | – | CO[C@H]1O[C@H](CO)[C@H](O)[C@H](OCc2cn([C@@H](CCCCN)C(=O)O)nn2)[C@H]1O |
| 11.1 | – | – | CO[C@H]1O[C@H](CO)[C@H](O)[C@H](OCc2cn([C@@H](CC(=O)O)C(=O)O)nn2)[C@H]1O |

Further lines, the molecule ahead of its results:

| SMILES | Kd (Galectin-3 [1]) [µM] | Kd (Galectin-3 [2]) [µM] | Kd (Galectin-3 [3]) [µM] |
| --- | --- | --- | --- |
| CO[C@H]1O[C@H](CO)[C@H](O)[C@H](OCc2cn([C@H](C(=O)O)[C@@H](C)O)nn2)[C@H]1O | 88.2 | – | – |
| CO[C@H]1O[C@H](CO)[C@H](O)[C@H](OCc2cn([C@@H](Cc3ccccc3)C(=O)O)nn2)[C@H]1O | 7.96 | – | – |
| CO[C@H]1O[C@H](CO)[C@H](O)[C@H](OCc2cn([C@@H](Cc3cc4ccccc4[nH]3)C(=O)O)nn2)[C@H]1O | 28.1 | – | – |
| CO[C@H]1O[C@H](CO)[C@H](O)[C@H](OCc2cn([C@@H](Cc3ccc(O)cc3)C(=O)O)nn2)[C@H]1O | 19.9 | – | – |
| OC[C@H]1O[C@@H](O[C@H]2[C@H](O)[C@@H](O)[C@H](OCCOCCOCCn3cc(CO[C@@H]4O[C@H](CO)[C@@H](O[C@@H]5O[C@H](CO)[C@H](O)[C@H](O)[C@H]5O)[C@H](O)[C@H]4O)nn3)O[C@@H]2CO)[C@H](O)[C@@H](O)[C@H]1O | – | 19 | 0.5 |
